{
  "source": "ChEMBL document CHEMBL4346695",
  "about": "“Thiophenol-formaldehyde triazole causes apoptosis induction in ovary cancer cells and prevents tumor growth formation in mice model” (2019)",
  "key": {"Caov-3 cell line [1]": {"system": "Caov-3 cell line", "assay": "Induction of Cell cycle arrest in human Caov3 cells assessed as accumulation at G0/G1 phase at 2 uM incubated for 48 hrs by propidium iodide staining based flow cytometric analysis (reference value: 57.77%)", "type": "functional"}, "Caov-3 cell line [2]": {"system": "Caov-3 cell line", "assay": "Induction of Cell cycle arrest in human Caov3 cells assessed as accumulation at G2/M phase at 1 uM incubated for 48 hrs by propidium iodide staining based flow cytometric analysis (reference value: 22.68%)", "type": "functional"}, "Caov-3 cell line [3]": {"system": "Caov-3 cell line", "assay": "Induction of apoptosis in human Caov3 cells assessed as formation of apoptotic nuclei at 2.0 uM incubated for 48 hrs by Hoechst 33342 staining based fluorescent microscopic method relative to control", "type": "functional"}, "Caov-3 cell line [4]": {"system": "Caov-3 cell line", "assay": "(§1) Antimetastasis activity against human Caov3 cells xenografted in BALB/c nude mouse assessed as reduction in vWF expression in peritoneal lesions at 5 mg/kg, ip incubated for 1 hr post tumor implantation and measured after 20 days by DAB and hematoxylin staining based immunohistochemical analysis", "type": "functional, organism-based"}, "Caov-3 cell line [5]": {"system": "Caov-3 cell line", "assay": "Induction of Cell cycle arrest in human Caov3 cells assessed as accumulation at S phase at 1 uM incubated for 48 hrs by propidium iodide staining based flow cytometric analysis (reference value: 18.89%)", "type": "functional"}, "Caov-3 cell line [6]": {"system": "Caov-3 cell line", "assay": "as §1, with “infiltration of macrophages” for “vWF expression”, “liver” for “peritoneal”, “10” for “5”, “analysis relative to control” for “analysis”", "type": "functional", "set-up": "scale not given: the % may be the effect or the level left"}, "Homo sapiens [7]": {"organism": "Homo sapiens", "assay": "Growth inhibition of human ES2 cells at 0.25 uM incubated for 48 hrs by MTT assay", "type": "functional"}, "Caov-3 cell line [8]": {"system": "Caov-3 cell line", "assay": "(§2) Antimetastasis activity against human Caov3 cells xenografted in BALB/c nude mouse assessed as reduction in vWF expression in lungs lesions at 5 mg/kg, ip incubated for 1 hr post tumor implantation and measured after 20 days by DAB and hematoxylin staining based immunohistochemical analysis", "type": "functional, organism-based"}, "Caov-3 cell line [9]": {"system": "Caov-3 cell line", "assay": "Inhibition of metastasis in human Caov3 cells assessed as decrease in MMP9 expression level at 0.5 uM incubated for 48 hrs by Western blot analysis", "type": "functional, cell-based"}, "Caov-3 cell line [10]": {"system": "Caov-3 cell line", "assay": "Antitumor activity against human Caov3 cells xenografted in BALB/c nude mouse assessed as tumor size at 5 mg/kg, ip incubated for 1 hr post tumor implantation and measured after 20 days (reference value: 1956 +/- 367 mm3)", "type": "functional"}, "Caov-3 cell line [11]": {"system": "Caov-3 cell line", "assay": "Growth inhibition of human Caov3 cells incubated for 48 hrs by MTT assay", "type": "functional, cell-based"}, "Caov-3 cell line [12]": {"system": "Caov-3 cell line", "assay": "Induction of apoptosis in human Caov3 cells assessed as formation of apoptotic nuclei at 0.5 uM incubated for 48 hrs by Hoechst 33342 staining based fluorescent microscopic method relative to control", "type": "functional"}, "Caov-3 cell line [13]": {"system": "Caov-3 cell line", "assay": "as §1, with “infiltration of macrophages” for “vWF expression”, “intestinal” for “peritoneal”, “10” for “5”, “analysis relative to control” for “analysis”", "type": "functional", "set-up": "scale not given: the % may be the effect or the level left"}, "Caov-3 cell line [14]": {"system": "Caov-3 cell line", "assay": "Inhibition of metastasis in human Caov3 cells assessed as decrease in FAK phosphorylation level at 0.5 to 5.0 uM incubated for 48 hrs by Western blot analysis", "type": "functional, cell-based"}, "Caov-3 cell line [15]": {"system": "Caov-3 cell line", "assay": "as §1, with “intestinal” for “peritoneal”, “10” for “5”, “analysis relative to control” for “analysis”", "type": "functional", "set-up": "scale not given: the % may be the effect or the level left"}, "Caov-3 cell line [16]": {"system": "Caov-3 cell line", "assay": "as §1, with “infiltration of macrophages” for “vWF expression”, “10” for “5”, “analysis relative to control” for “analysis”", "type": "functional", "set-up": "scale not given: the % may be the effect or the level left"}, "Caov-3 cell line [17]": {"system": "Caov-3 cell line", "assay": "Induction of Cell cycle arrest in human Caov3 cells assessed as accumulation at S phase at 1.5 uM incubated for 48 hrs by propidium iodide staining based flow cytometric analysis (reference value: 18.89%)", "type": "functional"}, "Caov-4": {"system": "Caov-4", "assay": "Growth inhibition of human Caov4 cells at 2 uM incubated for 48 hrs by MTT assay relative to control", "type": "functional", "conditions": "Caov-4, 48 h, read-out: GI"}, "Caov-3 cell line [18]": {"system": "Caov-3 cell line", "assay": "Antimetastasis activity against human Caov3 cells xenografted in BALB/c nude mouse assessed as reduction of metastasis in spleen at 10 mg/kg, ip incubated for 1 hr post tumor implantation and measured after 20 days by H and E staining-based assay", "type": "functional, organism-based"}, "Caov-3 cell line [19]": {"system": "Caov-3 cell line", "assay": "Induction of apoptosis in human Caov3 cells assessed as formation of apoptotic nuclei at 0.25 uM incubated for 48 hrs by Hoechst 33342 staining based fluorescent microscopic method relative to control", "type": "functional"}, "Caov-3 cell line [20]": {"system": "Caov-3 cell line", "assay": "Inhibition of metastasis in human Caov3 cells assessed as decrease in MMP2 expression level at 0.5 uM incubated for 48 hrs by Western blot analysis", "type": "functional, cell-based"}, "Homo sapiens [21]": {"organism": "Homo sapiens", "assay": "Growth inhibition of human ES2 cells incubated for 48 hrs by MTT assay", "type": "functional"}, "Caov-3 cell line [22]": {"system": "Caov-3 cell line", "assay": "as §1, with “infiltration of macrophages” for “vWF expression”", "type": "functional, organism-based"}, "Caov-3 cell line [23]": {"system": "Caov-3 cell line", "assay": "Induction of apoptosis in human Caov3 cells assessed as formation of apoptotic nuclei at 1.5 uM incubated for 48 hrs by Hoechst 33342 staining based fluorescent microscopic method relative to control", "type": "functional"}, "Caov-3 cell line [24]": {"system": "Caov-3 cell line", "assay": "as §1, with “liver” for “peritoneal”, “10” for “5”, “analysis relative to control” for “analysis”", "type": "functional", "set-up": "scale not given: the % may be the effect or the level left"}, "Caov-3 cell line [25]": {"system": "Caov-3 cell line", "assay": "Induction of Cell cycle arrest in human Caov3 cells assessed as accumulation at S phase at 2 uM incubated for 48 hrs by propidium iodide staining based flow cytometric analysis (reference value: 18.89%)", "type": "functional"}, "Caov-3 cell line [26]": {"system": "Caov-3 cell line", "assay": "Induction of Cell cycle arrest in human Caov3 cells assessed as accumulation at G2/M phase at 1.5 uM incubated for 48 hrs by propidium iodide staining based flow cytometric analysis (reference value: 22.68%)", "type": "functional"}, "Caov-3 cell line [27]": {"system": "Caov-3 cell line", "assay": "as §2, with “infiltration of macrophages” for “vWF expression”", "type": "functional, organism-based"}, "Caov-3 cell line [28]": {"system": "Caov-3 cell line", "assay": "Growth inhibition of human Caov3 cells at 2 uM incubated for 48 hrs by MTT assay relative to control", "type": "functional", "conditions": "Caov-3, 48 h, read-out: GI"}, "Caov-3 cell line [29]": {"system": "Caov-3 cell line", "assay": "Antiinvasive activity in human Caov3 cells at 1.5 uM incubated for 48 hrs using hematoxylin by microscopy-based transwell assay relative to control", "type": "functional"}, "Caov-3 cell line [30]": {"system": "Caov-3 cell line", "assay": "as §1, with “infiltration of macrophages” for “vWF expression”, “liver” for “peritoneal”", "type": "functional, organism-based"}},
  "note": "Active and inactive are the calls of the source. The calls are words filed in the database; no cut-off is given here.",
  "data": [
    {"smiles": "Fc1ccccc1-n1cc(COCc2ccccc2S)nn1", "values": [
      {"measurement": "Activity", "setting": "Caov-3 cell line [1]", "result": 69.54, "unit": "%"},
      {"measurement": "Activity", "setting": "Caov-3 cell line [2]", "result": 21.19, "unit": "%"},
      {"measurement": "Activity", "setting": "Caov-3 cell line [3]", "result": 62.53, "unit": "%"},
      {"measurement": "Activity", "setting": "Caov-3 cell line [4]", "result": "inactive"},
      {"measurement": "Activity", "setting": "Caov-3 cell line [5]", "result": 16.23, "unit": "%"},
      {"measurement": "Activity", "setting": "Caov-3 cell line [6]", "result": 8, "unit": "%"},
      {"measurement": "growth inhibition (GI)", "setting": "Homo sapiens [7]", "result": "inactive"},
      {"measurement": "Activity", "setting": "Caov-3 cell line [8]", "result": "inactive"},
      {"measurement": "inhibition", "setting": "Caov-3 cell line [9]", "result": "Active"},
      {"measurement": "Activity", "setting": "Caov-3 cell line [10]", "result": 1258, "unit": "mm3"},
      {"measurement": "growth inhibition (GI)", "setting": "Caov-3 cell line [11]", "result": "Dose-dependent effect"},
      {"measurement": "Activity", "setting": "Caov-3 cell line [12]", "result": 8.67, "unit": "%"},
      {"measurement": "Activity", "setting": "Caov-3 cell line [13]", "result": 7, "unit": "%"},
      {"measurement": "inhibition", "setting": "Caov-3 cell line [14]", "result": "Active"},
      {"measurement": "Activity", "setting": "Caov-3 cell line [15]", "result": 6, "unit": "%"},
      {"measurement": "Activity", "setting": "Caov-3 cell line [16]", "result": 5, "unit": "%"},
      {"measurement": "Activity", "setting": "Caov-3 cell line [17]", "result": 14.61, "unit": "%"},
      {"measurement": "inhibition of growth at 2 µM", "setting": "Caov-4", "result": 26, "unit": "%"},
      {"measurement": "Activity", "setting": "Caov-3 cell line [18]", "result": "Active"},
      {"measurement": "Activity", "setting": "Caov-3 cell line [19]", "result": 1.26, "unit": "%"},
      {"measurement": "inhibition", "setting": "Caov-3 cell line [20]", "result": "Active"},
      {"measurement": "growth inhibition (GI)", "setting": "Homo sapiens [21]", "result": "Dose-dependent effect"},
      {"measurement": "Activity", "setting": "Caov-3 cell line [22]", "result": "inactive"},
      {"measurement": "Activity", "setting": "Caov-3 cell line [23]", "result": 45.89, "unit": "%"},
      {"measurement": "Activity", "setting": "Caov-3 cell line [24]", "result": 7, "unit": "%"},
      {"measurement": "Activity", "setting": "Caov-3 cell line [25]", "result": 11.48, "unit": "%"},
      {"measurement": "Activity", "setting": "Caov-3 cell line [26]", "result": 20.07, "unit": "%"},
      {"measurement": "Activity", "setting": "Caov-3 cell line [27]", "result": "inactive"},
      {"measurement": "inhibition of growth at 2 µM", "setting": "Caov-3 cell line [28]", "result": 27, "unit": "%"},
      {"measurement": "Activity", "setting": "Caov-3 cell line [29]", "result": 39.14, "unit": "%"},
      {"measurement": "Activity", "setting": "Caov-3 cell line [30]", "result": "inactive"}
    ]}
  ]
}
